{
  "source": "patent US20040186166A1",
  "about": "“Cannabinoid analogs as peroxisome proliferator activated nuclear receptor gamma activators” (priority 2002, published 2004)",
  "key": {"[1]": {"biological_target": "T1, PPARγ / GST-RAC3 (amino acids 613-752) (Mus musculus, UniProt P37238)", "T1 construct": "made in house; host or cells: PPARγ1: reticulocyte lysate; GST-RAC3: E. coli BL21, kept on glutathione-Sepharose beads", "T1 sequence (P37238 1-475 isoform P37238-2)": "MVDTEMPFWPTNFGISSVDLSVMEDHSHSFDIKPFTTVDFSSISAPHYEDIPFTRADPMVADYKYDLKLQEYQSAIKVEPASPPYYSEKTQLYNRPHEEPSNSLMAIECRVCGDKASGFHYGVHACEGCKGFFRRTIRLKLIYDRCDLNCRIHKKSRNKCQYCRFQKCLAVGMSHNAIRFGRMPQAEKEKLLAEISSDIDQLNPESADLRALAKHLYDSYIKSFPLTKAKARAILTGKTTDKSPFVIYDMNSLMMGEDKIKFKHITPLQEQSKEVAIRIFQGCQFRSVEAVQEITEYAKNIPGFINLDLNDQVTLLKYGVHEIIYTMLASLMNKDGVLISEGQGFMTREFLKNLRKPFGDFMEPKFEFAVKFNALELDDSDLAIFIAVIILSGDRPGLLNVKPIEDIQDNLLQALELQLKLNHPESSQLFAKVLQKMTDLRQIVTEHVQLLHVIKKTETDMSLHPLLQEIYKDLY", "T1 sequence (Q9Y6Q9 613-752 partner limits assumed)": "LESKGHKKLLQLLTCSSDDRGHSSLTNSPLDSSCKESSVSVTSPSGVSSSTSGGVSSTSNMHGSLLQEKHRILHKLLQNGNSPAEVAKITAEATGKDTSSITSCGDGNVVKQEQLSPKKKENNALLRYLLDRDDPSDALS", "test": "GST pull-down assay, PPARγ with GST-RAC3", "assay_type": "binding", "conditions": "20 μM AJA", "method": "The glutathione S-transferase (GST)-DRIP205 (amino acid 527-970) and GST-RAC3 RID (amino acid 613-752) fusion proteins were expressed in BL21 cells by induction with 0.1 mM isopropyl-β-D-thiogalactopyranoside (IPTG) at room temperature for 4 hours. The bacterial pellet was resuspended in STE buffer (150 mM NaCl, 10 mM Tris pH 8.0, 1 mM EDTA), containing 5 mM dithiothreitol (DTT), 1 mM phenylmethlsulfonyl fluoride (PMSF) and 1.5% Sarkosyl. The cell suspension was sonicated and centrifuged at 7400 rpm at 4° C. for 30 minutes. The supernatant was isolated and 0.02% Triton-X 100 was added, and the mixture was then incubated with 1 ml 50% slurry of glutathione-Sepharose beads on a rotator at 4° C. for 30 minutes. The beads were spun down at 3000 rpm for 10 minutes, the supernatant was removed, and the beads were suspended in 1 ml cold PBS.\nApproximately 5 μg of GST-DRIP205 or GST-RAC3 bound on glutathione-Sepharose beads and 4 μl ^35S-methionine-labeled mPPARγ1 were incubated with the indicated concentrations of AJA, GW347845, or vehicle alone in H buffer (20 mM Hepes [pH 7.7], 75 mM KCl, 0.1 mM EDTA, 2.5 mM MgCl2, 0.05% NP40, 0.1 mM methionine, 1 mM DTT) containing 1 mg/ml bovine serum albumin (BSA) on a rotator at 4° C. overnight. After three washes with cold PBS, the bound protein was eluted in SDS sample buffer and boiled for 10 min before SDS-PAGE and autoradiography. […]"}, "[2]": {"test_system": "human IL-8 promoter", "test": "IL-8 promoter luciferase assay, HeLa cells with wild type PPARγ", "assay_type": "cell-based", "method": "(§1) For PPARγ activation assay, HEK293 cells were plated in 12-well cell culture plates and maintained in Dulbecco's modified Eagle's medium (DMEM) supplemented with 10% fetal bovine serum (FBS) at 37° C. under 5% CO2. Cells were changed to phenol red-free DMEM supplemented with 10% charcoal-stripped fetal bovine serum 3 hours before transfection by a standard calcium-phosphate precipitation method. Twelve hours after transfection, the cells were washed with phosphate-buffered saline (PBS) and fed again with fresh medium containing the indicated concentrations of compounds. After 36 hours, cells were harvested for β-galactosidase and luciferase activities as described previously (Li et al., Proc Natl Acad Sci USA 94:8479-84, 1997). The average normalized luciferase activity was determined via triplicate experiments. For IL-8 promoter assay, HeLa cells were maintained and transfected in the same way as described above. After transfection, cells were recovered for 4 hours before treatment with AJA, GW347845, or solvent. After 3-4 hours, cells were treated with or without 25 nM of phorbol myristate acetate (PMA) for 24 hours.\nThe IL-8 luciferase reporter controlled by the human IL-8 promoter (-97/-69) was cotransfected with mPPARγ or mPPARγ ΔAF2 mutant into HeLa cells. After transfection, cells were treated with AJA, GW347845 or solvent after PMA treatment for 24 hours. This was performed by determining the effect of AJA on IL-8 promoter activity and the role of PPARγ in this process. IL-8 is a biomarker for inflammation, and reduction of IL-8 levels correlates with a decrease in inflammation. The involvement of PPARγ in regulating IL-8 promoter activity was determined by comparing the IL-8 promoter activity in the presence of wild type PPARγ or its ΔAF2 mutant. In the experiment illustrated in FIG. 6A, PMA stimulated IL-8 promoter activity 3 fold, which was set as 100% promoter activity."}, "[3]": {"test_system": "human IL-8 promoter", "test": "IL-8 promoter luciferase assay, HeLa cells with PPARγ ΔAF2 mutant", "assay_type": "cell-based", "conditions": "cells transfected with PPARγ ΔAF2 mutant", "method": "as §1, with “After 3-4 hours, cells were treated with or without 25 nM of phorbol myristate acetate (PMA) for 24 hours.” left out\nThe IL-8 luciferase reporter controlled by the human IL-8 promoter (-97/-69) was cotransfected with mPPARγ or mPPARγ ΔAF2 mutant into HeLa cells. […] The involvement of PPARγ in regulating IL-8 promoter activity was determined by comparing the IL-8 promoter activity in the presence of wild type PPARγ or its ΔAF2 mutant. […]"}, "[4]": {"conditions": "IL-1β and TNFα injected into subcutaneous air pouches, mice; cited from earlier work"}},
  "data": [
    {"smiles": "CCCCCCC(C)(C)c1cc(O)c2c(c1)OC(C)(C)[C@@H]1CC=C(C(=O)O)C[C@@H]21", "note": "[AJA, dimethylheptyl-THC-11-oic acid]", "values": [
      {"measurement": "binding of PPARγ to GST-RAC3", "setting": "[1]", "value": "increased binding"},
      {"measurement": "reduction of PMA-stimulated IL-8 promoter activity", "setting": "[2]; 20 μM, HeLa cells", "value": "about 40%"},
      {"measurement": "significance of the reduction of IL-8 promoter activity", "setting": "[2]; 10 and 20 μM AJA", "value": "statistically significant"},
      {"measurement": "effect on IL-8 promoter activity", "setting": "[3]", "value": "no effect"},
      {"measurement": "acute inflammation", "setting": "[4]", "value": "suppress"}
    ]}
  ]
}
